According to publication PMC9785231, “Synthesis and Pharmacological Evaluation of Enantiopure N-Substituted Ortho-c Oxide-Bridged 5-Phenylmorphans” (Molecules, 2022):
Where two headings read alike, the source gives them in different places.

What was measured:
in vitro [1] = settings: human, microsomes
[2] = Microsomal metabolic stability, mouse liver microsomes; settings: for Remaining (NCF = 60 min): MLM 0.5, no co-factor (no NADPH); for Remaining (T = 60 min): MLM 0.5, with NADPH
[3] = Microsomal metabolic stability, human liver microsomes
in vitro [4] = settings: mouse, microsomes
CYP2C19 = CYP2C19 (Homo sapiens, UniProt P33261); experiment: in vitro; settings: microsomes
CYP2C9 = CYP2C9 (Homo sapiens, UniProt P11712); experiment: P450 inhibition, human liver microsomal CYP2C9; settings: microsomes
mu-opioid receptor (MOR) = settings: cited from earlier work
[5] = system: cloned human mu-opioid receptor; settings: [35S]GTPγS functional assay; cited from earlier work
μ-opioid receptor (MOR) = target: T1, μ-opioid receptor (MOR) (Rattus norvegicus, UniProt P33535); experiment: Opioid receptor binding, MOR ([3H]DAMGO), rat brain homogenate; settings: [3H]DAMGO, whole rat brains excluding cerebellum; read-out: MOR Binding (Ki ± SEM)
T1 construct: All assay tubes contained 100 μL homogenate suspension; from tissue; host or cells: whole rat brain excluding cerebellum, membrane homogenate

[6] = target: T2, human δ-opioid receptor (OPRD1) (Homo sapiens, UniProt P41143); experiment: cell-based
[7] = target: T3, human κ-opioid receptor (OPRK1) (Homo sapiens, UniProt P41145); experiment: Forskolin-induced cAMP accumulation assay, KOR antagonist mode; settings: for KOR Antagonist %Imax ± SEM: versus EC90 of U50488H, normalized to nor-BNI
δ-opioid receptor (DOR) = target: T4, δ-opioid receptor (DOR) (Rattus norvegicus, UniProt P33533); experiment: Opioid receptor binding, DOR ([3H]DADLE), rat brain homogenate; settings: for Ki: [3H]DADLE, whole rat brains excluding cerebellum, read-out: DOR Binding (Ki ± SEM); for fold lower affinity at DOR than at MOR: from Ki of Table 1
T4 construct: All assay tubes contained 100 μL homogenate suspension; from tissue; host or cells: whole rat brain excluding cerebellum, membrane homogenate

[8] = target: T2, human δ-opioid receptor (OPRD1); settings: versus EC50 of SNC80; normalized to naltrexone
CYP2D6 = target: T5, CYP2D6 (Homo sapiens, UniProt P10635); experiment: P450 inhibition, human liver microsomal CYP2D6; type: in vitro ADME; settings: for inhibition at 10 µM: human, human liver microsomes, read-out: 2D6 %Inhibition
T5 construct: selected human liver microsomal cytochrome P450 isozymes (CYP1A2, CYP2C9, CYP2C19, CYP2D6, and CYP3A); from tissue; host or cells: human liver microsomes

[9] = target: T2, human δ-opioid receptor (OPRD1); experiment: Forskolin-induced cAMP accumulation assay, DOR agonist mode
[10] = target: T3, human κ-opioid receptor (OPRK1); experiment: Forskolin-induced cAMP accumulation assay, KOR agonist mode
CYP3A = experiment: P450 inhibition, human liver microsomal CYP3A; type: in vitro ADME; settings: human liver microsomes, read-out: 3A %Inhibition
κ-opioid receptor (KOR) = target: T6, κ-opioid receptor (KOR) (Rattus norvegicus, UniProt P34975); experiment: Opioid receptor binding, KOR ([3H]U69,593), rat brain homogenate; settings: for Ki: [3H]U69,593, whole rat brains excluding cerebellum, read-out: KOR Binding (Ki ± SEM); for fold lower affinity at KOR than at MOR: from Ki of Table 1
T6 construct: All assay tubes contained 100 μL homogenate suspension; from tissue; host or cells: whole rat brain excluding cerebellum, membrane homogenate

CYP1A2 = target: T7, CYP1A2 (Homo sapiens, UniProt P05177); experiment: P450 inhibition, human liver microsomal CYP1A2; settings: microsomes
T7 sequence (P05177 1-516): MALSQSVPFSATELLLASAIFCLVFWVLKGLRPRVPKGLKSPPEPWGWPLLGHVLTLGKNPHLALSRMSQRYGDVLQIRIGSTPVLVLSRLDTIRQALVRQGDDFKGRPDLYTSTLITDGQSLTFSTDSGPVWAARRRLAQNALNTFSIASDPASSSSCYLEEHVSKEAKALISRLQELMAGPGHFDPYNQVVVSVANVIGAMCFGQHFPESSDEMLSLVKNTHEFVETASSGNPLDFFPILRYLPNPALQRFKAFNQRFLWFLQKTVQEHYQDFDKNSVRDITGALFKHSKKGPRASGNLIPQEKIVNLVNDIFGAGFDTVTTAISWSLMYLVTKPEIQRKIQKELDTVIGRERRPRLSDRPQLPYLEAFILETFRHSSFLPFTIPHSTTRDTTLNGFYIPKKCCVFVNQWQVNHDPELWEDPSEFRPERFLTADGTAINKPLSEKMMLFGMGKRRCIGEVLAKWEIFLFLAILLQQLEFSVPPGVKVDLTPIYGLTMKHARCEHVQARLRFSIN

[11] = HLM 0.5, no co-factor (no NADPH)
[12] = N-substituted 5-phenylmorphans, read-out: affinity at MOR Ki
[13] = forskolin-induced cAMP accumulation assay

T3 sequence (P41145 whole entry): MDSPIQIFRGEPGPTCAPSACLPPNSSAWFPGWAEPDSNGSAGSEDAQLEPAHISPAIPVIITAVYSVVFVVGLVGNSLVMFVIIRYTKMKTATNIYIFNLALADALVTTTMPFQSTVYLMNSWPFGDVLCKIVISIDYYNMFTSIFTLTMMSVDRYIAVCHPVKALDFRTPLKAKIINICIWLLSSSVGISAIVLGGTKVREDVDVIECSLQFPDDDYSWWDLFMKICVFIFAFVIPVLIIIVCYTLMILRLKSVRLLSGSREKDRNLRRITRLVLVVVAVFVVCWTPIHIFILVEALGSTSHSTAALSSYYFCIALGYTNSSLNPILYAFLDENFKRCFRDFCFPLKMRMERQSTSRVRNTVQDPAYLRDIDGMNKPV
T4 sequence (P33533 whole entry): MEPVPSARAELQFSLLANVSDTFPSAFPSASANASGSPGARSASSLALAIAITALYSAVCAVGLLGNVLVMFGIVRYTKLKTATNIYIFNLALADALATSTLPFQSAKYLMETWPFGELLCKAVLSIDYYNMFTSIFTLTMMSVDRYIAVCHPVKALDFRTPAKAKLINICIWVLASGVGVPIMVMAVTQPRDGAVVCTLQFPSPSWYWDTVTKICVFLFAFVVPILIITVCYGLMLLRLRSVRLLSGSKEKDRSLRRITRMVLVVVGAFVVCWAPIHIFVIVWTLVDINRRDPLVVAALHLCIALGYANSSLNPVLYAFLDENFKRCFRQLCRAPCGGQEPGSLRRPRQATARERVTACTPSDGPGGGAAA
T6 sequence (P34975 whole entry): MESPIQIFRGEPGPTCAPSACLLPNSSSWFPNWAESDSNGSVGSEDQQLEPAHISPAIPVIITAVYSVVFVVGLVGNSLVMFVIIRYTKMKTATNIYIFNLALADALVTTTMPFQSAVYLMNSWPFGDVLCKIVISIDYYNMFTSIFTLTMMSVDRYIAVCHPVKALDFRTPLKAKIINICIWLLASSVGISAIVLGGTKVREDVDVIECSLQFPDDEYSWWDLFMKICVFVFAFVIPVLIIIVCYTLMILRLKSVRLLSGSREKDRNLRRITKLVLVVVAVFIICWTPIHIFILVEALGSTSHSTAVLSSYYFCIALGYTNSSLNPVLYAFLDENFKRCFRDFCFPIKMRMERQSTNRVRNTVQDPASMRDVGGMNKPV
T2 sequence (P41143 whole entry): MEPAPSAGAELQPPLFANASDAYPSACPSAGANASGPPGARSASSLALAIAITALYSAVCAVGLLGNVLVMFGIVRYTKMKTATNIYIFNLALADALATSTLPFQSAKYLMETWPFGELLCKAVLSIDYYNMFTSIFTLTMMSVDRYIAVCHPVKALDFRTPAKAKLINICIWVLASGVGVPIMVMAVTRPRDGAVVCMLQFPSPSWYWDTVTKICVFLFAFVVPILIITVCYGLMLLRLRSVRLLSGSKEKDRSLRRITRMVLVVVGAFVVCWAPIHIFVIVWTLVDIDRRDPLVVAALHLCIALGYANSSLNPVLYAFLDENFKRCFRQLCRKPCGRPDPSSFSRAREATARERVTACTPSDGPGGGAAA
T5 sequence (P10635 whole entry): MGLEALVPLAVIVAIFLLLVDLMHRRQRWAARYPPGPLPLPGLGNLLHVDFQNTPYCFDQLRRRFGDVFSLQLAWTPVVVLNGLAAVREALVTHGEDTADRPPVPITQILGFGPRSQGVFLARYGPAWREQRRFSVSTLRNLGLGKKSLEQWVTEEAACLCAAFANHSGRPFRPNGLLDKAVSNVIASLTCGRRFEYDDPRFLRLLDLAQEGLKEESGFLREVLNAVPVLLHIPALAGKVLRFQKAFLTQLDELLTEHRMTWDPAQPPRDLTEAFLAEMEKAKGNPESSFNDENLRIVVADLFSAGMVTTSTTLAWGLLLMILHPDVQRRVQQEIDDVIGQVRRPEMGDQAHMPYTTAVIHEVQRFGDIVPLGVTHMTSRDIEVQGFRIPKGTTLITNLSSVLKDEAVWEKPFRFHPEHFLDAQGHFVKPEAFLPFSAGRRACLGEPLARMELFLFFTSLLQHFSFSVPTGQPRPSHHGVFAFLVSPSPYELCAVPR
Sequence of CYP2C9 (P11712 whole entry): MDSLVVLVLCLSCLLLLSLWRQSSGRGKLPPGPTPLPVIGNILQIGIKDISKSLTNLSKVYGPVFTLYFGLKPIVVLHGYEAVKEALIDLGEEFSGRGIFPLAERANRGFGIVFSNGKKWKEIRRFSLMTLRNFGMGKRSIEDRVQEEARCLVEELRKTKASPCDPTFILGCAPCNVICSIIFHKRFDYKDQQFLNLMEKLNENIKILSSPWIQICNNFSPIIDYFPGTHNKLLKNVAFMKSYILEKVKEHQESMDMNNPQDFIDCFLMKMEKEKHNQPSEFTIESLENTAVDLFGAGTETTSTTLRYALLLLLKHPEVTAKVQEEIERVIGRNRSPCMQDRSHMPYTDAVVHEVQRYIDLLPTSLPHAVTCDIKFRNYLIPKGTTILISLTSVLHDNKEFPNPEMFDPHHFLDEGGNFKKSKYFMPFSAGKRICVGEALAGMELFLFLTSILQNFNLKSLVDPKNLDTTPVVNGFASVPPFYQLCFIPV
Sequence of CYP2C19 (P33261 whole entry): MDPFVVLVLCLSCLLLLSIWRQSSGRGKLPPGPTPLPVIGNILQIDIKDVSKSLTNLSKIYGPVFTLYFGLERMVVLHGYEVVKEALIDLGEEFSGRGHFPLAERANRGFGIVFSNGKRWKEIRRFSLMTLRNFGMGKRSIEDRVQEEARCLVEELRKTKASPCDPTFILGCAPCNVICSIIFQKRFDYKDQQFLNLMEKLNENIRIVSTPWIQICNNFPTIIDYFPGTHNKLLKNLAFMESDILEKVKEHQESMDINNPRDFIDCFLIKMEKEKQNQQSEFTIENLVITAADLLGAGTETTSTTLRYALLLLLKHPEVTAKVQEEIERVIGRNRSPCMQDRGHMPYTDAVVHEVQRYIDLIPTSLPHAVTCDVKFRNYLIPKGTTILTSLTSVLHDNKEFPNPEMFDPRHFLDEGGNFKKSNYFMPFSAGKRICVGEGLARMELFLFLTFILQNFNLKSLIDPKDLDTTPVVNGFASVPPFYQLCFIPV
T1 sequence (P33535 whole entry): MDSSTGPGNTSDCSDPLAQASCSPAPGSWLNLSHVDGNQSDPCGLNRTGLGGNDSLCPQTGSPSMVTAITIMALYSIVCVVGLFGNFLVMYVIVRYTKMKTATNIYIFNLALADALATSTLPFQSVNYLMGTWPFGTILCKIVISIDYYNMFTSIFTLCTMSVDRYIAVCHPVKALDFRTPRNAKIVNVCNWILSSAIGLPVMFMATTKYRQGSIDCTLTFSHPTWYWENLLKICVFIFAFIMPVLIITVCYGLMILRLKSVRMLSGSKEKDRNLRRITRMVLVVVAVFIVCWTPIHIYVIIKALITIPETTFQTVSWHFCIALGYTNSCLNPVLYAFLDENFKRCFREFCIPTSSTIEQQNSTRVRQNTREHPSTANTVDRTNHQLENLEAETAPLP

## C[C@]12CC[C@H]3[C@@H](CCC4=CC(=O)CC[C@@]43C)[C@@H]1CC[C@@H]2O [Testosterone]
In vitro [1]
  CLint scaled: 96.4 mL/min/kg
[2]
  Remaining (NCF = 60 min): 97.1%
  Remaining (T = 60 min): 0.0%
[3]; [11]
  Remaining (NCF = 60 min): 86.7%
[3]; HLM 0.5, with NADPH
  Remaining (T = 60 min): 3.9%
In vitro [4]
  CLint scaled: 1720 mL/min/kg
  half-life: 3.2 min
  microsomal CLint: 435 µL/min/mg

## O=C1CC[C@@]2(O)[C@H]3Cc4ccc(O)c5c4[C@@]2(CCN3CC2CC2)[C@H]1O5 [Naltrexone]
CYP2C19
  inhibition at 10 µM: 0%
[2]
  Remaining (NCF = 60 min): 84.3%
  Remaining (T = 60 min): 48.1%
[3]; human, microsomes, 1 h
  Remaining (NCF = 60 min): 99.8%
  Remaining (T = 60 min): 97.1%
CYP2C9
  inhibition at 10 µM: 0%

## O=C(O)Cc1ccccc1Nc1c(Cl)cccc1Cl [Diclofenac]
In vitro [1]
  CLint scaled: 162 mL/min/kg
[2]
  Remaining (NCF = 60 min): 99.4%
  Remaining (T = 60 min): 33.5%
[3]; [11]
  Remaining (NCF = 60 min): 95.1%
[3]; HLM 0.5, with NADPH
  Remaining (T = 60 min): 0.4%
In vitro [4]
  microsomal CLint: 35.4 µL/min/mg

## Oc1cccc(C23CCCC(C2)N(CC2CC2c2ccccc2)CC3)c1 (single isomer, unassigned; (+)) [(+)-2]
mu-opioid receptor (MOR); [12]
  Ki: 3 nM
[5]
  mu-opioid antagonist activity Ke: 0.17 nM

## Oc1cccc2c1O[C@H]1CN(C[C@H]3C[C@@H]3c3ccccc3)[C@H]3CCC[C@@]21C3 [(+)-17, (3S,6aR,11aR)-2-(((1S,2S)-2-Phenylcyclopropyl)methyl)-1,3,4,5,6,11a-hexahydro-2H-3,6a-methanobenzofuro[2,3-c]azocin-10-ol]
In vitro [1]
  CLint scaled: 62 mL/min/kg
  half-life: 20.1 min
  microsomal CLint: 68.9 µL/min/mg
μ-opioid receptor (MOR)
  Ki: 11.9 ± 1.6 nM
[6]
  IC50: 487 ± 157 nM
CYP2C19
  inhibition at 10 µM: 46.6%
[2]
  Remaining (NCF = 60 min): 94.4%
  Remaining (T = 60 min): 0.2%
[7]
  IC50: 206 ± 63.2 nM
  KOR Antagonist %Imax ± SEM: 106.1 ± 5.5%
δ-opioid receptor (DOR)
  Ki: 49.4 ± 5.1 nM
  fold lower affinity at DOR than at MOR: approximately 4 fold
[8]
  DOR Antagonist %Imax ± SEM: 160.9 ± 4.0%
CYP2D6; 10 µM
  2D6 %Inhibition: 66.8%
CYP2D6
  inhibition at 10 µM: > 50%
[9]
  EC50: > 10000 nM
[9]; [13]
  functional agonist activity at DOR: did not have functional agonist activity
[10]
  EC50: > 10000 nM
[10]; [13]
  functional agonist activity at KOR: did not have functional agonist activity
[3]; [11]
  Remaining (NCF = 60 min): 98.5%
[3]; HLM 0.5, with NADPH
  Remaining (T = 60 min): 13.0%
CYP3A
  inhibition at 10 µM: 24.7%
In vitro [4]
  CLint scaled: 801 mL/min/kg
  half-life: 6.9 min
  microsomal CLint: 202 µL/min/mg
CYP2C9
  inhibition at 10 µM: 36.6%
κ-opioid receptor (KOR)
  Ki: 100 ± 10 nM
  fold lower affinity at KOR than at MOR: about 10 fold
CYP1A2
  inhibition at 10 µM: 6.8%

## Nc1ccc(S(=O)(=O)Nc2ccnn2-c2ccccc2)cc1 [Sulfaphenazole]
CYP2C9
  inhibition at 10 µM: 85.2%

## C=C[C@H]1C[N@@]2CC[C@H]1C[C@@H]2[C@@H](O)c1ccnc2ccc(OC)cc12 [Quinidine, reference compound]
CYP2D6
  inhibition at 10 µM: 94.2%

## Oc1cccc2c1OC1CN(CCc3ccccc3)C3CCCC21C3 (racemic) [(±)-1]
mu-opioid receptor (MOR); racemate, read-out: mu-opioid receptor affinity Ki
  Ki: 1.1 nM

## CC(=O)N1CCN(c2ccc(OCC3COC(Cn4ccnc4)(c4ccc(Cl)cc4Cl)O3)cc2)CC1 (stereo not drawn) [Ketoconazole, reference compound]
CYP3A
  inhibition at 10 µM: 98.8%

## Oc1cccc2c1O[C@H]1CN(CCc3ccccc3)[C@H]3CCC[C@@]21C3 [(-)-1, (3S,6aR,11aR)-2-Phenethyl-1,3,4,5,6,11a-hexahydro-2H-3,6a-methano-benzofuro[2,3-c]azocin-10-ol]
μ-opioid receptor (MOR)
  Ki: 1.11 ± 0.15 nM
[6]
  IC50: 409 ± 138 nM
[7]
  IC50: 102 ± 65.8 nM
  KOR Antagonist %Imax ± SEM: 109.3 ± 8.1%
δ-opioid receptor (DOR)
  Ki: 34.8 ± 4.4 nM
  fold lower affinity at DOR than at MOR: approximately 30 fold
[8]
  DOR Antagonist %Imax ± SEM: 86.5 ± 6.4%
[9]
  EC50: > 10000 nM
[10]
  EC50: > 10000 nM
κ-opioid receptor (KOR)
  Ki: 13 ± 1.2 nM
  fold lower affinity at KOR than at MOR: about 10 fold

## O=c1cc(-c2ccccc2)oc2c1ccc1ccccc12 [α-Naphthoflavone, reference compound]
CYP1A2
  inhibition at 10 µM: 88.3%

## Oc1cccc(C23CCCC(C2)N(CC2CC2c2ccccc2)CC3)c1 (single isomer, unassigned; (-)) [(-)-3]
mu-opioid receptor (MOR); [12]
  Ki: 4 nM
[5]
  mu-opioid antagonist activity Ke: 0.3 nM
